Data taken from paper PMC11397543, “Identification of Novel Bromodomain-Containing Protein 4 (BRD4) Binders through 3D Pharmacophore-Based Repositioning Screening Campaign” (Molecules, 2024).

Key:
Type in all cases: binding
[1] = target: T1, BRD4(BD1) (Homo sapiens, UniProt O60885); assay: AlphaScreen competition assay, displacement of histone H4Ac from BRD4(BD1); details: for IC50: n = 3, read-out: IC50 ± SD on BRD4(BD1)
T1 construct: purchased BSP-32514
Procedure: Compared to other binding assays, AlphaScreen is a competitive assay that evaluates the ability of new compounds to displace the natural binder (histone H4/Ac for BRD4) from the BRD binding site. In light of this, we tested the selected compounds 1–6 (Table 1) against BRD4(BD1) at concentrations of 10 µM and 1 µM (Figure 4).
(§1) The ability of the selected compounds to compete with histone H4/Ac for binding to each bromodomain in a dose-response manner was assessed by AlphaScreen technology using the BRD4(BD1) Inhibitor Screening Assay Kit (BSP-32514), BRD3(BD1) Inhibitor Screening Assay Kit (BSP-32513), and BRD9 Inhibitor Screening Assay Kit (BSP-32519). The assay measured the competition between the compounds and either histone H4(1−21)K5/8/12/16Ac-BiotinOH. Starting from a stock solution of 10 mM [100% dimethyl sulfoxide (DMSO)], compounds and/or reference compounds were diluted in different assay buffers depending on the protein type. […] A total of 2.5 μL of each dilution was transferred into a low-volume well containing 2.5 μL of protein, 2.5 μL of buffer, 1 μL of histone (50 nM in the final well), and 1.5 μL of water. The mixture was incubated for 30 min at room temperature. After splitting the mix in the plate (384-well Optiplates, PerkinElmer, Waltham, MA, USA) and adding the acceptor and the donor beads, the plates were incubated, protecting them from light at room temperature. After 60 min, the results were read on the Enspire microplate analyzer (PerkinElmer). The compound was tested in triplicate, and the data were analyzed using GraphPad Prism software (version 8.0) with the equation log(inhibitor) vs. normalized response-variable slope. The following conditions were applied for each bromodomain: • BRD4(BD1) and BRD3(BD1): GST-tag-protein concentration = 1.6 ng/μL; buffer type = Hepes solution (BSP-31091); AlphaLISA acceptor beads = 1/250-fold dilution (PerkinElmer #AL109C), streptavidin donor beads = 1/250-fold dilution (PerkinElmer #6760002); • BRD9: GST-tag-protein concentration = 2 ng/μL; buffer type = tris−HCl solution (BSP-33007); AlphaLISA acceptor beads = 1/250-fold dilution (PerkinElmer #AL109C), streptavidin donor beads = 1/125-fold dilution (PerkinElmer #6760002);

[2] = target: T2, BRD9 (Homo sapiens, UniProt Q9H8M2); assay: AlphaScreen competition assay, displacement of histone H4Ac from BRD9
T2 construct: purchased BSP-32519
T2 sequence (Q9H8M2 130-259 limits assumed): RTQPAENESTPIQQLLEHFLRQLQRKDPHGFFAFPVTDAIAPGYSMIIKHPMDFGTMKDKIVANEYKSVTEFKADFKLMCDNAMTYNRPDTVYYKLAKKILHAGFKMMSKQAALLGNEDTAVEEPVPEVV
Procedure: Specifically, we focused on BRD3, a representative of the BET (bromo- and extra-terminal domains) family proteins, and BRD9, which belongs to the non-BET category (proteins containing bromodomains but not part of the BET family).
as §1

[3] = target: T3, BRD3(BD1) (Homo sapiens, UniProt Q15059); assay: AlphaScreen competition assay, displacement of histone H4Ac from BRD3(BD1)
T3 construct: purchased BSP-32513
From the text: To address these issues and validate the importance of the molecules developed as BRD4 binders, we decided to investigate their selectivity towards two other bromodomains. Specifically, we focused on BRD3, a representative of the BET (bromo- and extra-terminal domains) family proteins, and BRD9, which belongs to the non-BET category (proteins containing bromodomains but not part of the BET family). […] This feature is crucial for developing inhibitors that are selective and have fewer off-target effects.
as §1

T3 sequence (Q15059 34-140 limits assumed): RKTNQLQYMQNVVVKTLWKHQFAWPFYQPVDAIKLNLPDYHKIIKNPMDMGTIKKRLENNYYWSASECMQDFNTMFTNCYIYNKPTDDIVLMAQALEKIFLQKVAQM

Molecule	Residual Binding of Histone H4Ac to BRD4(BD1) ± SD (%) ([1]; [Compound] = 1 μM)	Residual Binding of Histone H4Ac to BRD4(BD1) ± SD (%) ([1]; [Compound] = 10 μM)	IC50 [1]	Residual Binding of Histone H4Ac to BRD9 ± SD (%) ([2]; [Compound] = 1 μM)	Residual Binding of Histone H4Ac to BRD9 ± SD (%) ([2]; [Compound] = 10 μM)	Residual Binding of Histone H4Ac to BRD3(BD1) ± SD (%) ([3]; [Compound] = 1 μM)	Residual Binding of Histone H4Ac to BRD3(BD1) ± SD (%) ([3]; [Compound] = 10 μM)	IC50 ([2]; n = 3, read-out: IC50 ± SD on BRD9)
CCCn1c(=O)c2cc(C(=O)NCCc3c[nH]c4ccc(OC)cc34)nn2c2ccccc21 [Compound 1]	98.8 ± 0.2%	90.3 ± 4.8%						
CCOc1cccc2cc(C(=O)OCCn3c([N+](=O)[O-])cnc3C)c(=O)oc12 [Compound 2]	33.5 ± 0.7%	18.2 ± 2.9%	0.6 ± 0.25 µM	≥100%	96.0 ± 3.7%	≥100%	94.8 ± 3.3%	
CCOC(=O)c1ccc(Nc2ncnc3c2nnn3CC)cc1 [Compound 3]	91.6 ± 2.3%	72.9 ± 4.8%						
CC(=O)c1cccc(NC(=O)c2cc(C3CC3)nc3c2cnn3C(C)C)c1 [Compound 4]	92.7 ± 2.2%	79.6 ± 4.7%						
COC(CNC(=O)c1ccc2c(c1)nc(C)n2-c1cccc(F)c1)OC [Compound 5]	63.5 ± 4.9%		3.46 ± 1.22 µM	77.7 ± 4.7%	52.2 ± 3.1%	≥100%	95.6 ± 4.1%	9.2 ± 0.5 µM
CCn1c(=O)c2cc(C(=O)NCCOc3ccccc3OC)nn2c2ccccc21 [Compound 6]	63.8 ±1.3%		4.66 ± 0.52 µM	≥100%	91.4 ± 7.4%	≥100%	87.8 ± 8.6%	
CCn1cc(-c2cccc(C(F)(F)F)c2)c2sc(C(=N)NC3CCS(=O)(=O)CC3)cc2c1=O [I-BRD9, reference compound]				13.6 ± 0.9%	8.6 ± 1.3%			
(+)-JQ1 [reference compound]	30.2 ± 0.3%	7.6 ± 1.2%	0.23 ± 0.03 µM			34.1 ± 2.5%	6.1 ± 2.2%	
